What was measured:
[1] = target: PRMT9 (Homo sapiens, UniProt Q6P2P2); assay: PRMT family radioactive assay; type: biochemical; details: 60 minute SAM:Enzyme:Compound A preincubation
[2] = tested on: 196 human cancer cell lines; assay: 6-day growth-death assay (Cell Titer Glo); type: cell-based
[3] = tested on: AML cell lines; assay: 6-day growth-death assay (Cell Titer Glo); type: cell-based, human
[4] = tested on: Bladder cancer cell lines; assay: 6-day growth-death assay (Cell Titer Glo); type: cell-based, human; details: 18 cell lines
[5] = tested on: Colon cancer cell lines; assay: 6-day growth-death assay (Cell Titer Glo); type: cell-based, human
[6] = tested on: NSCLC cell lines; assay: 6-day growth-death assay (Cell Titer Glo); type: cell-based, human; details: 25 cell lines
[7] = tested on: Melanoma cell lines; assay: 6-day growth-death assay (Cell Titer Glo); type: cell-based, human
[8] = tested on: Toledo cells
Description: FIG. 18: Propidium iodide FACS analysis of cell cycle in human lymphoma cell lines. […] Data represents the average±SEM of biological replicates, n=2.

[9] = tested on: human renal cell carcinoma xenografts (ACHN); assay: ACHN xenograft efficacy; type: in vivo, mouse
[10] = tested on: 769-P; assay: 6-day growth-death assay (Cell Titer Glo); type: cell-based, human; details: ccRCC
Protocol: (§1) The growth of all cell lines was evaluated over time across a wide range of seeding densities to identify conditions that permitted proliferation throughout the entire 6-day assay. Cells were plated at the optimal seeding density and after overnight incubation, a 20-point 2-fold titration of compound was added and plates were incubated for 6 days. A replicate plate of cells was harvested at the time of compound addition to quantify the starting number of cells (T0). Values obtained after the 6 day treatment were expressed as a function of the T0 value and plotted against compound concentration. The T0 value was normalized to 100% and represents the number of cells at the time of compound addition. The data were fit with a 4 parameter equation to generate a concentration response curve and the growth IC50 (gIC50) was determined. The gIC50 is the midpoint of the ‘growth window’, the difference between the number of cells at the time of compound addition (To) and the number of cells after 6 days (DMSO control). The growth-death assay can be used to quantify the net population change, clearly defining cell death (cytotoxicity) as fewer cells compared to the number at the time of compound addition (To).

[11] = tested on: ACHN; assay: 6-day growth-death assay (Cell Titer Glo); type: cell-based, human
Protocol: as §1

[12] = tested on: MOLM-16; assay: 6-day growth-death assay (Cell Titer Glo); type: cell-based, human; details: MOLM-16, subtype M0
Protocol: as §1

[13] = tested on: NOMO-1; assay: 6-day growth-death assay (Cell Titer Glo); type: cell-based, human; details: NOMO-1, subtype M5
Protocol: as §1

[14] = tested on: SHI-1; assay: 6-day growth-death assay (Cell Titer Glo); type: cell-based, human; details: SHI-1, subtype M5
Protocol: as §1

[15] = tested on: SKM-1; assay: 6-day growth-death assay (Cell Titer Glo); type: cell-based, human; details: SKM-1, subtype M5
Protocol: as §1

[16] = tested on: SW156; assay: 6-day growth-death assay (Cell Titer Glo); type: cell-based, human; details: SW156, ccRCC
Protocol: as §1

[17] = tested on: non-TNBC breast cancer cell lines; assay: cells; details: Homo sapiens, read-out: Median gIC50
Protocol: Cell lines representing triple negative breast cancer (TNBC) are shown in orange; other subtypes are in blue.
as §1

[18] = tested on: A375; assay: 6-day growth-death assay (Cell Titer Glo); type: cell-based, human
Description: (§2) Cell Titer Glo was used to measure growth inhibition as previously described.

[19] = tested on: COLO741; assay: 6-day growth-death assay (Cell Titer Glo); type: cell-based, human
Description: as §2

[20] = tested on: HT144; assay: 6-day growth-death assay (Cell Titer Glo); type: cell-based, human
Description: as §2

[21] = tested on: IGR-1; assay: 6-day growth-death assay (Cell Titer Glo); type: cell-based, human
Description: as §2

[22] = tested on: MDA-MB-435S; assay: 6-day growth-death assay (Cell Titer Glo); type: cell-based, human
Description: as §2

[23] = tested on: SK-MEL-2; assay: 6-day growth-death assay (Cell Titer Glo); type: cell-based, human
Description: as §2

[24] = tested on: SK-MEL-5; assay: 6-day growth-death assay (Cell Titer Glo); type: cell-based, human
Description: as §2

[25] = rat 14-day MTD; details: […] mg/kg
[26] = tested on: Toledo (human DLBCL) xenograft; assay: Toledo xenograft efficacy
[27] = Homo sapiens, read-out: Median gIC50

PRMT9, sequence (Q6P2P2 whole entry): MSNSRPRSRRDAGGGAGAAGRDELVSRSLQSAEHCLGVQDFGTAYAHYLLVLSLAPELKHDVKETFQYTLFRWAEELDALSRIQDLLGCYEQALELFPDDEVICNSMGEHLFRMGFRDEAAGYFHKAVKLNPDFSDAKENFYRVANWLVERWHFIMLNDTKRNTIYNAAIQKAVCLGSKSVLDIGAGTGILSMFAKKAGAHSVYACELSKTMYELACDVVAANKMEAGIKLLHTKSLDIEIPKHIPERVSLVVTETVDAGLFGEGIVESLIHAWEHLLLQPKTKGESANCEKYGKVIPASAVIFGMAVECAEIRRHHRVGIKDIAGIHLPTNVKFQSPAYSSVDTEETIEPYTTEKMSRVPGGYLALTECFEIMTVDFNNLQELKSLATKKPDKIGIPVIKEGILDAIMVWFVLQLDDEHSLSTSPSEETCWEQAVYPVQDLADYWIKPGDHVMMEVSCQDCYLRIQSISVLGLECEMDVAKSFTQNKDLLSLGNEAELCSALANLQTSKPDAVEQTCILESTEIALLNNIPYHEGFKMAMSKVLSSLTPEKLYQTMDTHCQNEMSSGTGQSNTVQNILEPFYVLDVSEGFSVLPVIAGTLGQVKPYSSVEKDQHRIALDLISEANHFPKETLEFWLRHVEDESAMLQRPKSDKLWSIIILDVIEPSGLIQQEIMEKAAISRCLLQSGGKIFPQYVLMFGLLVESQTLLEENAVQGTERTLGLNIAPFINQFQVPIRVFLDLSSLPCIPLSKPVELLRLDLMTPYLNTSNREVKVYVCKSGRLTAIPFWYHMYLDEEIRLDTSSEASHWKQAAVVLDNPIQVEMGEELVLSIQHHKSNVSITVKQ

For CCOCC1(COCC)CCC(c2n[nH]cc2CN(C)CCNC)CC1 [Compound A], the inhibition of activity [1] was “failed to inhibit”, the IC50 [2, 27] was 2120 nM and the “% Cytotoxic (cell lines with negative Ymin-T0)” value (shortened to “% Cytotoxic”) ([2]; Total, 196 cell lines) was 23%. For the same molecule, the “% gIC100 < 2 μM (share of cell lines)” value ([2]; Total, 196 cell lines) was 4%, the “Median gIC100” value ([2]; Total, 196 cell lines) was 29.33 µM and the “number of cell lines in which cytotoxicity was induced” value ([3]; 10 AML cell lines) was 5. The “% Cytotoxic” value ([3]; AML, 10 cell lines) was 50%, the “% gIC100 < 2 μM (share of cell lines)” value ([3]; AML, 10 cell lines) was 0% and the “Median gIC100” value ([3]; AML, 10 cell lines) was 16.72 µM. For the same molecule, the IC50 [3, 27] was 540 nM, the “% Cytotoxic” value [4] was 0% and the “% gIC100 < 2 μM (share of cell lines)” value [4] was 0%. For the same molecule, the “Median gIC100” value [4] was 29.33 µM, the “% Cytotoxic” value ([5]; Colon, 34 cell lines) was 3% and the “% gIC100 < 2 μM (share of cell lines)” value ([5]; Colon, 34 cell lines) was 0%. The “Median gIC100” value ([5]; Colon, 34 cell lines) was 29.33 µM, the IC50 [5, 27] was 5510 nM and the “% Cytotoxic” value [6] was 16%. The “% gIC100 < 2 μM (share of cell lines)” value [6] was 0%, the “Median gIC100” value [6] was 29.33 µM and the “% Cytotoxic” value ([7]; Melanoma, 7 cell lines) was 0%. For the same molecule, the “% gIC100 < 2 μM (share of cell lines)” value ([7]; Melanoma, 7 cell lines) was 0%, the “Median gIC100” value ([7]; Melanoma, 7 cell lines) was 29.33 µM and the nature of effect ([7]; all melanoma lines) was “cytostatic”. For the same molecule, the “concentrations giving accumulation of cells in sub-G1” value ([8]; beginning after 3 days of treatment) was 1000 nM, the “concentrations giving increase in sub-G1 population” value ([8]; by day 7) was 100 nM and the Regression ([9]; 300 mg/kg QD oral, day 59) was “(2%)”. The “Body weight Difference (vs. vehicle)” value ([9]; 300 mg/kg QD, day 59) was −4%, the Regression ([9]; 450 mg/kg QD oral, day 59) was “(15%)” and the “Body weight Difference (vs. vehicle)” value ([9]; 450 mg/kg QD, day 59) was −7%. For the same molecule, the Regression ([9]; 600 mg/kg QD oral, arm terminated at day 31) was “(6%)”, the “Body weight Difference (vs. vehicle)” value ([9]; 600 mg/kg QD, arm terminated at day 31) was −17% and the body weight loss ([9]; 600 mg/kg daily) was “Significant body weight loss”. The “Body weight Difference (vs. vehicle)” value ([9]; […] mg/kg QD, day 59) was −3%, the “doses at which regressions were observed” value ([9]; oral, daily, up to 59 days) was no less than 300 mg/kg and the Ymin-T0 [10] was 119.0. The IC50 ([11]; Homo sapiens, read-out: gIC50) was 100 ± 50 nM, the Ymin-T0 ([11]; ccRCC) was 96.5 and the Ymin-T0 [12] was −68.6. The gIC100 [12] was 9.69 ± 10.58 µM, the Ymin-T0 [13] was 259.1 and the gIC100 [13] was 29.33 ± 0.00 µM. It also gave a Ymin-T0 [14] of 292.0, a gIC100 [14] of 29.33 ± 0.02 µM and a Ymin-T0 [15] of −19.1. The gIC100 [15] was 11.61 ± 5.52 µM, the Ymin-T0 [16] was 346.7 and the IC50 [17] was 6800 nM. For the same molecule, the Ymin-T0 ([18]; A375) was 91.9, the gIC100 ([18]; A375) was 29.33 ± 0.00 µM and the IC50 ([18]; Homo sapiens, A-375, read-out: gIC50) was 50 ± 30 nM. It also gave a Ymin-T0 [19] of 12.5, a gIC100 [19] of 28.55 ± 1.40 µM and a Ymin-T0 [20] of 124.9. For the same molecule, the gIC100 [20] was 29.33 ± 0.00 µM, the Ymin-T0 [21] was 507.0 and the gIC100 [21] was 29.33 ± 0.00 µM. For the same molecule, the Ymin-T0 [22] was 19.1, the gIC100 [22] was 29.33 ± 0.00 µM and the Ymin-T0 [23] was 35.9. For the same molecule, the gIC100 [23] was 22.37 ± 12.11 µM, the IC50 ([24]; Homo sapiens, SK-MEL-5, read-out: gIC50) was 90 ± 30 nM and the Ymin-T0 ([24]; SK-MEL-5) was 31.8. For the same molecule, the gIC100 ([24]; SK-MEL-5) was 27.09 ± 3.92 µM, the “Cave (total AUC or exposure) at MTD” value [25] was 2100 nM and the “Body weight Difference (vs. vehicle)” value ([26]; 300 mg/kg QD oral, day 28) was −3%. For the same molecule, the Regression ([26]; 300 mg/kg QD oral, day 28) was “(37%)”, the “Body weight Difference (vs. vehicle)” value ([26]; 450 mg/kg QD oral, day 28) was −8% and the Regression ([26]; 450 mg/kg QD oral, day 28) was “(58%)”. The “Body weight Difference (vs. vehicle)” value ([26]; 600 mg/kg QD oral, day 28) was −7%, the Regression ([26]; 600 mg/kg QD oral, day 28) was “(62%)” and the “Body weight Difference (vs. vehicle)” value ([26]; […] mg/kg QD oral, day 28) was −4%. For the same molecule, the body weight loss ([26]; any dose group, 150-600 mg/kg daily, 28 days) was “no significant body weight loss”, the “doses at which regressions were observed” value ([26]; oral, daily, 28 days) was no less than 300 mg/kg and the “Body weight Difference (vs. vehicle)” value ([26]; second study, 37.5 mg/kg QD, day 25) was −5%. For the same molecule, the “Body weight Difference (vs. vehicle)” value ([26]; second study, 75 mg/kg BID, day 25) was −4%, the “Body weight Difference (vs. vehicle)” value ([26]; second study, 75 mg/kg QD, day 25) was −5% and the “Body weight Difference (vs. vehicle)” value ([26]; second study, 150 mg/kg QD, day 25) was −7%.

— US11197857B2, “Combination therapy” (GlaxoSmithKline Intellectual Property Development Limited, priority 2016, dated 2021)
